Target: T1, protein tyrosine phosphatase 1B (PTP1B) (Homo sapiens, UniProt P18031)
T1 construct: gene PTPN1; catalytic domain (Met1-Glu298) of PTP1B (ΔPTP1B)
T1 sequence (P18031 1-298): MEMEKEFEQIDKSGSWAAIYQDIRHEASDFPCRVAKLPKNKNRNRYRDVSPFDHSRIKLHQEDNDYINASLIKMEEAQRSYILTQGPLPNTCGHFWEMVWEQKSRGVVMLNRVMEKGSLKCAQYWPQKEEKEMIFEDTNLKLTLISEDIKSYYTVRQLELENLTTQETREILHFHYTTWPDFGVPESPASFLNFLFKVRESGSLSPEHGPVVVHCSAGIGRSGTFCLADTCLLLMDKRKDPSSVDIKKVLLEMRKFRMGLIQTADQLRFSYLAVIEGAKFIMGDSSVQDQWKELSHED
Assay: p-NPP phosphatase assay with purified recombinant PTP1B catalytic domain, absorbance at […] nm
Assay type: biochemical

Compound: O=c1c(O)c(-c2ccc(O)cc2)oc2cc(O)cc(O)c12 [kaempferol]
- IC50: 279 µM

From publication PMC11012793, “Mulberry Leaf Compounds and Gut Microbiota in Alzheimer’s Disease and Diabetes: A Study Using Network Pharmacology, Molecular Dynamics Simulation, and Cellular Assays” (International Journal of Molecular Sciences, 2024)
